From patent US20250199004A1, “METHODS OF EVALUATING TREATMENT OUTCOME IN HIGH GRADE SEROUS OVARIAN CANCER” (THE REGENTS OF THE UNIVERSITY OF COLORADO, A BODY CORPORATE, priority 2018, published 2025)

How the values were obtained:
[1] = test system: ID8 Trp53-/- Brca2-/- cells; assay: Syngeneic mouse model, CBX2 intact vs CBX2 knock down tumors; type: in vivo, C57BL/6J mice; settings: 30 mg/kg PO, 28 days
Experimental: To further elucidate the dependence of alisertib on CBX2, an in vivo study was performed using a syngeneic mouse model with CBX2 intact compared to CBX2 knock down, undergoing treatment with alisertib. Measurements of mRNA expression confirmed that CBX2 knock down was effective (FIG. 15 Panel A). The mice were treated with vehicle control or 30 mg/kg alisertib for 28 days (FIG. 15 Panel B). Tumor-bearing mice were necropsied at the end of treatment and omental weight, number of dissemination sites, and total tumor weight were quantified (FIG. 15 Panels C-E, respectively). […] It can be concluded therefore, that the loss of CBX2 expression in an ovarian cancer model attenuates the anti-tumor response to alisertib. […] Tissue was also collected and processed for further analysis. […] In the second study, mice were treated with 30 mg/kg alisertib, PO, for 28 days, as described above. Due to the weight loss observed in the first study, we reduced treatment from 7 days per week to 5 days per week.

[2] = test system: OVCAR4 cells; assay: Proliferation assay, parental vs CRISPR CBX2 knock out cells; type: cell-based, human; settings: OVCAR4 CRISPR/Cas9 CBX2 KO vs parental
Experimental: Examples 8-12: All drugs were suspended in DMSO at the concentration of 50 mM and aliquoted and stored in -80 C. 1000 cells were seeded in 96 well plate a day prior. 10 fold dilution of drugs in the cultureing media supplemented with FBS and penicillin/Streptomycin was added and cells were cultured until the cells in the no-drug added wells became confluent (5-8 days). Cells were washed with PBS twice and fixed with fixation buffer (10% Methanol and 10% Acetic acid in PBS) followed by staining with Cristal Violet staining solution (0.4% Cristal Violet in 20% Ethanol). […] CBX2 CRISPR knocked-out OVCAR4 cells were created by the University of Colorado Functional Genomics Facility using the IDT Alt-R RNP system. ALT-R crRNA and ATL-R tracrRNA were suspended at 100 μmol/L in nuclease-free IDTE pH7.5. The same volumes of ALT-R crRNA and ATL-R tracrRNA were mixed to prepare gRNA complex at 50μmol/L, heated at 95° C. for 5 minutes, and then were cooled to room temperature. The RNP complex was prepared with 150 pmol of gRNA and 125 pmol of Alt-R Cas9-NLS in final volume of 5 μL in PBS. Cells were harvested in Necleofector solution SF with supplement (Lonza, Basel, Switzerland) at a concentration of 1×10^6 cells per 100 μL. The transfection mix was made with 100 μL of cell suspension, 2.5 μL each of RNP complex, and 0.6 μL of 100 μL of Alt-R Cas9 Electroporation enhancer. […]

[3] = test system: Histone H2A Lys119 ubiquitination (H2AK119ub); assay: Western blot for H2AK119ub as marker of CBX2/PRC1 activity; type: cell-based, human
Experimental: CBX2 is a known subunit of PRC1, which is critical for normal development and functions as a transcriptional repressor. PRC1 is understood to have histone ubiquitin ligase activity, specifically targeting Histone H2A […] ubiquitination ([…]). In order to evaluate the impact of treatment with alisertib on the broader PRC1 complex, […] was used as a surrogate marker of CBX2 activity in the PRC1. OVCAR4 (***confirm) cells were treated with IC50 doses of each of the 10 candidate inhibitors, a Western blot for […] was compared to a beta-actin control (FIG. 12 Panel C). […] Finally, PRC1 target […] was used to evaluate the impact of treatment with alisertib on the broader PRC1 complex. OVCAR4 and PEO1 cells were treated with increasing doses of aliserib and western blots were performed to evaluate […] as a marker of PRC1 activity (FIG. 14 Panel F). Cell lysis was performed using radioimmunoprecipitation assay (RIPA) buffer (150 mM sodium chloride, Triton X-100, 0.5% sodium deoxycholate, 0.1% SDS [sodium dodecyl sulfate], 50 mM Tris, pH 8.0) supplemented with complete EDTA-free protease inhibitor cocktail (Roche), as well as NaF and NaV. Protein was quantified using bicinchoninic acid (BCA) protein assay (Thermo Fisher Scientific, Waltham, MA) and spectrophotometry. An 8% SDS polyacrylamide gel resolving gel was created with a 4% stacking gel. […]

[4] = test system: TMEFF1 expression in OVCAR4 cells; assay: TMEFF1 (CBX2 target gene) expression by qPCR; type: cell-based, human; settings: qPCR after treatment of OVCAR4 cells
Experimental: Ten candidate inhibitors were evaluated based on their ability to inhibit HGSOC cell viability. Dose response assays of all 10 inhibitors were conducted in OVCAR4, PEO1, and COV504 HGSOC cell lines to determine half inhibitory concentration (IC50) (FIG. 12 Panel A). We explored ability of these compounds to downregulate a CBX2 target gene, transmembrane protein with EGF-like and two follistatine-like domains 1 (TMEFF1) (FIG. 12 Panel B).
RNA was isolated using RNAeasy Plus Mini Kit (Qiagen, Hilden Germany) according to the manufacturer's protocol. NanoDrop spectrophotometry was used to measure concentration of extracted RNA. Luna Universal One-step RT qPCR kit (New England BioLabs, Ipswich, MA) was used on BioRad CFX96 (Bio-Rad, Hercules, CA). HPRT or GAPDH were used as internal control as stated in figure legend.

[5] = test system: OVCAR4 cells; assay: Ultra low dilution analysis (ULDA) of stemness; type: cell-based, human
Experimental: An ultralow dilutional assay (ULDA) utilizing the OVCAR4 HGSOC cell line was used to evaluate the functional impact of four inhibitors. The number of spheroids were plotted against the IC50 dose of each agent (FIG. 13 Panel B). The more significant the decrease in spheroids formation capacity, the more significant the decrease in stemness associated with treatment. […] Cells were trypsinized and filtered with a 40-micron filter, creating a single cell suspension. Cells were plated in 96 wells ultra-low attachment plates (CORNING #3474 this is flat bottom, and CORNING #7007: used u bottom for COV504) in 200 ul CSC media (DMEM/F12, 1× B27, 4% FBS, 100 U/ml penicillin/streptomycin, 20 ng/ml human EGF, 20 ng/ml human FGF). After 3 days, 100 μl of medium was gently taken out, then added drugs to final IC50 concentration. The media with drug was replaced with half volume every 4-5 days and cultured for 3 weeks. […] After 4 hours spheroid existence and color were evaluated under the microscope (Incucyte). Observation of purple spheroids confirmed the presence of live cells and were scored as 1. If no spheroids appreciated, or if purple spheroids were not observed it was scored as 0. […] The stem cell frequency was calculated using ultra low limiting dilution analysis (PMID: 19567251).

SMILES: COc1cc(Nc2ncc3c(n2)-c2ccc(Cl)cc2C(c2c(F)cccc2OC)=NC3)ccc1C(=O)O [alisertib]
- number of dissemination sites: anti-tumor response in CBX2 knock down mice vs CBX2 intact mice [1]: significant attenuation
- omental weight: anti-tumor response in CBX2 knock down mice vs CBX2 intact mice [1]: significant attenuation
- total tumor weight: anti-tumor response in CBX2 knock down mice vs CBX2 intact mice [1]: significant attenuation
- IC50 in CBX2 KO cells compared to the parental cells [2]: ten times higher
- H2AK119ub, surrogate marker of PRC1 activity ([3]; OVCAR4 and PEO1 cells, increasing doses): decreased in parallel with CBX2
- Histone H2A Lys119 ubiquitination ([3]; OVCAR4 cells, IC50 dose, vs beta-actin control): decreased
- TMEFF1 expression [4]: significantly inhibited
- impact on stemness through ULDA on knocking out CBX2 ([5]; OVCAR4 CBX2 KO vs parental): attenuated impact
- stem cell frequency ([5]; treatment at IC50): decreased
